Data reported in ChEMBL document CHEMBL6103565, “Current strategies in design and synthesis of antifungals hybrid and chimeric diazine derivatives” (Bioorg Med Chem, 2025).
Converted amounts (≈) assume the structure as drawn.

How the values were obtained:
Aspergillus flavus = experiment: Antimicrobial activity against Aspergillus flavus assessed as zone of inhibition; assay type: functional
Pichia kudriavzevii = experiment: Antifungal activity against Candida krusei ATCC 6258; assay type: functional
Nakaseomyces glabratus = experiment: Antifungal activity against Candida glabrata ATCC 90030; assay type: functional
Candida albicans [1] = experiment: Antifungal activity against Candida albicans ATCC 10231; assay type: functional
Candida parapsilosis = experiment: Antifungal activity against Candida parapsilosis ATCC 22019; assay type: functional; conditions: Lodderomyces parapsilosis
Saccharomyces cerevisiae [2] = experiment: Antimicrobial activity against Saccharomyces cerevisiae assessed as zone of inhibition by disc diffusion method; assay type: functional
Candida albicans [3] = experiment: Antifungal activity against Candida albicans assessed as zone of inhibition by disc diffusion method; assay type: functional
Candida albicans [4] = experiment: Antimicrobial activity against Candida albicans ATCC 64124 assessed as reduction in microbial growth by CLSI protocol based micro-broth dilution method; assay type: functional
Botrytis cinerea = experiment: Antifungal activity against Botrytis cinerea assessed as reduction in fungal growth at 50 ug/ml relative to control; assay type: functional
Saccharomyces cerevisiae [5] = experiment: Antimicrobial activity against Saccharomyces cerevisiae assessed as zone of inhibition; assay type: functional
Candida albicans [6] = experiment: Antifungal activity against Candida albicans assessed as reduction in fungal growth incubated for 48 hrs by broth micro-dilution method; assay type: functional
Cryptococcus neoformans = experiment: Antifungal activity against Cryptococcus neoformans assessed as reduction in fungal growth incubated for 24 hrs by broth microdilution method; assay type: functional
Botryosphaeria dothidea = experiment: Antifungal activity against Botryosphaeria dothidea assessed as reduction in fungal growth at 50 ug/ml relative to control; assay type: functional
[7] = test system: Syncephalastrum racemosum; experiment: Antifungal activity against Syncephalastrum racemosum assessed as zone of inhibition; assay type: functional
Candida albicans [8] = experiment: Antifungal activity against Candida albicans assessed as zone of inhibition by serial dilution and disc diffusion method; assay type: functional
Aspergillus niger = experiment: Antifungal activity against Aspergillus niger assessed as zone of inhibition by disc diffusion method; assay type: functional
Candida albicans [9] = experiment: Antifungal activity against Candida albicans NRRL-Y477 assessed as zone of inhibition by disc diffusion method; assay type: functional
Candida albicans [10] = experiment: Antifungal activity against Candida albicans assessed as diameter of zone inhibition; assay type: functional
Candida albicans [11] = experiment: Antifungal activity against Candida albicans; assay type: functional
Geotrichum candidum = experiment: Antifungal activity against Geotrichum candidum; assay type: functional
Candida albicans [12] = experiment: Antifungal activity against Candida albicans MTCC 227 by disc diffusion method; assay type: functional, organism-based

## O=C1CSC(c2ccccc2)N1c1nc(-c2ccccc2)cc(-c2ccccn2)n1 (stereo not drawn)
Aspergillus flavus
  inhibition zone (IZ): 10 mm

## Nc1nc2ccccc2nc1NC1CC(C(=O)O)=CC1=O (stereo not drawn)
Pichia kudriavzevii
  MIC: 0.78 µg/mL (≈ 2.74 µM)
Nakaseomyces glabratus
  MIC: 0.78 µg/mL (≈ 2.74 µM)
Candida albicans [1]
  MIC50: 0.78 µg/mL (≈ 2.74 µM)
Candida parapsilosis
  MIC: 0.78 µg/mL (≈ 2.74 µM)

## C(=N\c1ncnc2[nH]ccc12)/c1ccccc1
Saccharomyces cerevisiae [2]
  inhibition zone (IZ): 13 mm
Candida albicans [3]
  inhibition zone (IZ): 15 mm

## Fc1ccccc1/C=N/c1ncnc2[nH]ccc12
Saccharomyces cerevisiae [2]
  inhibition zone (IZ): 13 mm
Candida albicans [3]
  inhibition zone (IZ): 15 mm

## Cc1nc(-c2ccc(C(C)(C)C)cc2)sc1-c1ccnc(N[C@H]2CCCCC2CN)n1 (stereo partly drawn)
Candida albicans [4]
  MIC: 4 µg/mL

## Fc1ccc(/C=N/c2ncnc3[nH]ccc23)cc1
Saccharomyces cerevisiae [2]
  inhibition zone (IZ): 13 mm
Candida albicans [3]
  inhibition zone (IZ): 15 mm

## Fc1cccc(/C=N/c2ncnc3[nH]ccc23)c1
Saccharomyces cerevisiae [2]
  inhibition zone (IZ): 21 mm
Candida albicans [3]
  inhibition zone (IZ): 15 mm

## O=C(Nc1ccc(F)c(Cl)c1)c1ccc(Oc2cc(C(F)(F)F)ncn2)cc1
Botrytis cinerea
  inhibition at 50 µg/mL: 91.7%

## O=C1CNC(c2ccc(Cl)cc2)N1c1nc(-c2ccc(Cl)cc2)cc(-c2ccccn2)n1 (stereo not drawn)
Aspergillus flavus
  inhibition zone (IZ): 10 mm

## COc1ccc(/C=N/Nc2ncnc3[nH]ccc23)cc1OC
Saccharomyces cerevisiae [5]
  inhibition zone (IZ): 24 mm

## Cc1ccc(S(=O)(=O)Nc2nc(/N=N/c3c(N)nn4c(C)cc(=O)[nH]c34)cs2)cc1
Candida albicans [6]
  MIC: 3.12 µg/mL (≈ 7.02 µM)

## NC(=S)NNC(=O)c1c[nH]c2ncnn2c1=O
Cryptococcus neoformans
  MIC: 25 µg/mL (≈ 98.7 µM)

## Cc1nc(Oc2ccc(C(=O)Nc3ccc(F)cc3)cc2)cc(C(F)(F)F)n1
Botryosphaeria dothidea
  inhibition at 50 µg/mL: 85.9%

## CCc1nnc2c(Nc3ccc(Br)cc3)nc3ccccc3n12
[7]
  inhibition zone (IZ): 20 mm

## COc1ccc(OC)c(/C=N/Nc2ncnc3[nH]ccc23)c1
Candida albicans [8]
  inhibition zone (IZ): 30 mm
Saccharomyces cerevisiae [5]
  inhibition zone (IZ): 24 mm

## CCOC(=O)c1c(C)nc2sc3c(SCC(=O)Nc4ccc(C)cc4)ncnc3c2c1-c1cccs1
Aspergillus niger
  inhibition zone (IZ): 24 mm
Candida albicans [9]
  inhibition zone (IZ): 25 mm

## Cc1cccc(-c2nc3ccccc3nc2N2CCN(Cc3ccccc3)CC2)c1
Candida albicans [10]
  inhibition zone (IZ): 14 mm

## O=[N+]([O-])c1ccc(/C=N/c2ncnc3[nH]ccc23)cc1
Saccharomyces cerevisiae [2]
  inhibition zone (IZ): 13 mm
Candida albicans [3]
  inhibition zone (IZ): 15 mm

## O=C(Nc1ccc(F)cc1)c1ccc(Oc2cc(C(F)(F)F)ncn2)cc1
Botrytis cinerea
  inhibition at 50 µg/mL: 90.3%
Botryosphaeria dothidea
  inhibition at 50 µg/mL: 89.8%

## Nc1nc(=S)[nH]c(N)c1C1=NC2=Nc3ccccc3C2=N1
Aspergillus flavus
  inhibition zone (IZ): 14 mm

## COC(=O)C1C(C(=O)OC)C(C(=O)c2ccccc2)N2N=C(c3ccc(Cl)cc3)C=CC12 (stereo not drawn)
Candida albicans [10]
  inhibition zone (IZ): 25 mm

## COc1ccccc1/C=N/Nc1ncnc2[nH]ccc12
Candida albicans [8]
  inhibition zone (IZ): 30 mm

## COc1cccc(/C=N/Nc2ncnc3[nH]ccc23)c1
Candida albicans [8]
  inhibition zone (IZ): 30 mm
Saccharomyces cerevisiae [5]
  inhibition zone (IZ): 24 mm

## CCc1nnc2c(Nc3ccc(C4=NN(C(N)=S)C(c5ccccc5)C4)cc3)nc3ccccc3n12 (stereo not drawn)
[7]
  inhibition zone (IZ): 20 mm

## Cc1nc(-c2ccc(C(C)(C)C)cc2)sc1-c1ccnc(N[C@H]2CC[C@H](N)CC2)n1
Candida albicans [4]
  MIC: 4 µg/mL

## Cc1nc(Oc2ccc(C(=O)Nc3ccc(Br)c(Cl)c3)cc2)cc(C(F)(F)F)n1
Botrytis cinerea
  inhibition at 50 µg/mL: 83.8%

## COC(=O)C1C(C(=O)OC)C(C(=O)c2ccc([N+](=O)[O-])cc2)N2N=C(c3ccc(Cl)cc3)C=CC12 (stereo not drawn)
Candida albicans [10]
  inhibition zone (IZ): 24 mm

## CN(C)c1ccc(/C=N/c2ncnc3[nH]ccc23)cc1
Saccharomyces cerevisiae [2]
  inhibition zone (IZ): 13 mm
Candida albicans [3]
  inhibition zone (IZ): 15 mm

## Cc1nc(-c2ccc(C(C)(C)C)cc2)sc1-c1ccnc(N[C@H]2CCCC[C@@H]2N)n1
Candida albicans [4]
  MIC: 4 µg/mL

## CCOC(=O)C1CC(C(=O)c2ccccc2)N2N=C(c3ccc(Cl)cc3)C=CC12 (stereo not drawn)
Candida albicans [10]
  inhibition zone (IZ): 24 mm

## CCc1nnc2c(Nc3ccc(C(=O)/C=C/c4ccc(C)cc4)cc3)nc3ccccc3n12
[7]
  inhibition zone (IZ): 20 mm

## COc1cccc(/C=N/Nc2ncnc3[nH]ccc23)c1OC
Candida albicans [8]
  inhibition zone (IZ): 30 mm
Saccharomyces cerevisiae [5]
  inhibition zone (IZ): 24 mm

## Nc1ccc(C(=O)NNc2nc3ccccc3nc2Cl)cc1
Pichia kudriavzevii
  MIC: 0.78 µg/mL (≈ 2.49 µM)
Nakaseomyces glabratus
  MIC: 0.78 µg/mL (≈ 2.49 µM)
Candida albicans [1]
  MIC50: 0.78 µg/mL (≈ 2.49 µM)
Candida parapsilosis
  MIC: 0.78 µg/mL (≈ 2.49 µM)

## Cc1nc2ccccc2nc1N1CC(C(=O)O)=CC1=O
Pichia kudriavzevii
  MIC: 0.78 µg/mL (≈ 2.9 µM)
Nakaseomyces glabratus
  MIC: 0.78 µg/mL (≈ 2.9 µM)
Candida albicans [1]
  MIC50: 0.78 µg/mL (≈ 2.9 µM)
Candida parapsilosis
  MIC: 0.78 µg/mL (≈ 2.9 µM)

## CCOC(=O)Cc1nc2c3[se]c4nc5c(nc4c3ncn2n1)c(C)nn5-c1ccccc1
Candida albicans [11]
  MIC: 8 µg/mL (≈ 16.3 µM)
Geotrichum candidum
  MIC: 6 µg/mL (≈ 12.2 µM)

## COc1ccc(/C=N/Nc2ncnc3[nH]ccc23)cc1
Candida albicans [8]
  inhibition zone (IZ): 30 mm
Saccharomyces cerevisiae [5]
  inhibition zone (IZ): 24 mm

## Nc1ncc(C2=NC3=Nc4ccccc4C3=N2)c(N)n1
Aspergillus flavus
  inhibition zone (IZ): 18 mm

## O=[N+]([O-])c1cccc(/C=N/c2ncnc3[nH]ccc23)c1
Saccharomyces cerevisiae [2]
  inhibition zone (IZ): 13 mm
Candida albicans [3]
  inhibition zone (IZ): 15 mm

## Cc1nc2ccccc2nc1NNC(=O)c1ccc(N)cc1
Pichia kudriavzevii
  MIC: 0.78 µg/mL (≈ 2.66 µM)
Nakaseomyces glabratus
  MIC: 0.78 µg/mL (≈ 2.66 µM)
Candida albicans [1]
  MIC50: 0.78 µg/mL (≈ 2.66 µM)
Candida parapsilosis
  MIC: 0.78 µg/mL (≈ 2.66 µM)

## COc1ccc(/C=N/Nc2ncnc3[nH]ccc23)c(OC)c1
Candida albicans [8]
  inhibition zone (IZ): 30 mm
Saccharomyces cerevisiae [5]
  inhibition zone (IZ): 24 mm

## Brc1cc(Br)cc(/C=N/Nc2ncnc3[nH]ccc23)c1
Candida albicans [8]
  inhibition zone (IZ): 21 mm
Saccharomyces cerevisiae [5]
  inhibition zone (IZ): 21 mm

## Cc1nn(-c2ccccc2)c2nc3sc4c(c3nc12)N=C(N)COC4=O
Geotrichum candidum
  MIC: 4 µg/mL (≈ 11 µM)

## Cc1nc(-c2ccc(C(C)(C)C)cc2)sc1-c1ccnc(NCCCN)n1
Candida albicans [4]
  MIC: 4 µg/mL

## COc1nc2ccccc2nc1N1CC(C(=O)O)=CC1=O
Pichia kudriavzevii
  MIC: 0.78 µg/mL (≈ 2.73 µM)
Nakaseomyces glabratus
  MIC: 0.78 µg/mL (≈ 2.73 µM)
Candida albicans [1]
  MIC50: 0.78 µg/mL (≈ 2.73 µM)
Candida parapsilosis
  MIC: 0.78 µg/mL (≈ 2.73 µM)

## Cc1ccc(S(=O)(=O)Nc2nc(/N=N/c3c(N)nn4c(C)cc(C)nc34)cs2)cc1
Candida albicans [6]
  MIC: 50 µg/mL (≈ 113 µM)

## Cc1ccc(S(=O)(=O)Nc2nc(/N=N/c3c(N)nn4c(-c5ccc([N+](=O)[O-])cc5)c(C#N)c(N)nc34)cs2)cc1
Candida albicans [6]
  MIC: 25 µg/mL (≈ 43.4 µM)

## O=C(CSc1nc2sc3c(c2c(=O)n1-c1ccc(Cl)cc1)CCCC3)Nc1nc(-c2cccc(Br)c2)cs1
Candida albicans [9]
  inhibition zone (IZ): 18 mm

## CCc1nnc2c(Nc3ccc(C4=NN(c5ccccc5)C(c5ccc(OC)cc5)C4)cc3)nc3ccccc3n12 (stereo not drawn)
[7]
  inhibition zone (IZ): 21 mm

## Cc1ccc(S(=O)(=O)Nc2nc(/N=N/c3c(N)nn4c(-c5ccc(Cl)cc5)c(C#N)c(N)nc34)cs2)cc1
Candida albicans [6]
  MIC: 100 µg/mL (≈ 177 µM)

## Cc1ccc(S(=O)(=O)Nc2nc(/N=N/c3c(N)nn4c(N)c(C#N)nnc34)cs2)cc1
Candida albicans [6]
  MIC: 6.25 µg/mL (≈ 13.7 µM)

## COC(=O)Nc1nc2ccccc2[nH]1 [CARBENDAZIM]
Candida albicans [12]
  EC50: 0.21 µg/mL (≈ 1.1 µM)

## C[C@@H]1C[C@@H]([C@H](O)CC2CC(=O)NC(=O)C2)C(=O)[C@@H](C)C1 [CYCLOHEXIMIDE]
Candida albicans [6]
  MIC: 3.12 µg/mL (≈ 11.1 µM)
